Data taken from ChEMBL document CHEMBL1201862, “PubChem BioAssay data set” (2004).
Active and inactive are the calls of the source.

How the values were obtained:
[1] = viability inhibitors of stage V gametocytes – luminescence, dose response (AID 1117278); type: functional, cell-based;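 note: gametocytes exposed to compound for 24 hours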
[2] = viability loss in human Jurkat cells – cell-based, luminescence, cytotoxicity control for P. falciparum gametocyte viability project, dose response (AID 1117277); type: functional;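 note: potency reflects loss of cellular ATP meaning fewer viable cells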
Prothrombin = Prothrombin (Homo sapiens, UniProt P00734); experiment: Thrombin 1536 HTS Dose Response Confirmation. [Related pubchem assays: 1046 (Thrombin 1536 HTS; hits were confirmed in this assay)]; type: functional
[3] = Luminescence Cell-Based Dose Retest to Confirm Inhibitors of Cancer Stem Cells. [Related pubchem assays (depositor defined):AID2717, AID2721]; type: functional; conditions: Homo sapiens
[4] = target: T1, Microphthalmia-associated transcription factor (Homo sapiens, UniProt O75030); experiment: reducers of TRPM1 reporter luminescence, concentration series – cell-based, SK-MEL-5, cherry-picked, set 3, MITF inhibitor project, dose response (AID 493073); type: functional;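 note: SK-MEL-5 melanoma cells with luciferase driven by the MITF target TRPM1 promoter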
T1 sequence (O75030 whole entry): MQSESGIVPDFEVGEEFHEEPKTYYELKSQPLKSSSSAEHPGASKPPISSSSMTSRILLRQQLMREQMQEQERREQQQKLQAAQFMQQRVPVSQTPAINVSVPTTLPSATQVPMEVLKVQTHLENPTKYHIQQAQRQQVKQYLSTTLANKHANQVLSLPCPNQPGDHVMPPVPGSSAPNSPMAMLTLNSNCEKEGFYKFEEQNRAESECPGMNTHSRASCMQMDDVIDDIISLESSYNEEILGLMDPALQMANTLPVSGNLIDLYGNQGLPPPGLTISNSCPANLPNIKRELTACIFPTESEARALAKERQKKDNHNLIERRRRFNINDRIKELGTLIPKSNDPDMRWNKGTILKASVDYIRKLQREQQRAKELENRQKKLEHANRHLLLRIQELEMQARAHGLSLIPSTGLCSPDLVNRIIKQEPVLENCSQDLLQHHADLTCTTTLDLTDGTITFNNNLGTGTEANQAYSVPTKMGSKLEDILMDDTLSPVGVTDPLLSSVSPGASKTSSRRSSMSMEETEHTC

A-375 = experiment: proliferation inhibition in MITF-low A375 cells – cell-based, cherry-pick samples, set 2, counter-screen for MITF modulator project, dose response (AID 540335); type: functional; conditions: Homo sapiens
[5] = reduction of Shn3 3'UTR-driven luciferase in osteoblasts – cell-based, Clone20 osteoblasts, firefly luciferase, cherry-picked, dose response (AID 624132); type: functional;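 note: firefly luciferase luminescence from reporter carrying the Shn3 3'UTR in osteoblasts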
[6] = loss of viability in HepG2 cells – cell-based, CellTiter-Glo, cherry-picked, cytotoxicity control for Shn3 inhibitor project, dose response (AID 624134); type: functional
[7] = non-specific 3'UTR reporter inhibition in Clone20-Shn3RL – cell-based, Renilla luciferase, cherry-picked, counter-screen for Shn3 inhibitor project, dose response (AID 624133); type: functional
Paired box protein Pax-8 = Paired box protein Pax-8 (Homo sapiens, UniProt Q06710); experiment: PAX8 transcriptional activity inhibition in RMG-I – RMG-I cells, luciferase, cherry-pick, dose response (AID 687027); type: functional, cell-based;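 note: luciferase reporter driven by Pax8 target thyroperoxidase promoter measured by SteadyGlo luminescence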
[8] = A549 cell cytotoxicity, dose response, cytotoxicity control, plate reader, cherry-pick, antagonist series (AID 743412); type: functional, cell-based
[9] = toxicity toward HepG2 liver cells – cell-based, plate reader, cherry-pick, antagonist series, cytotoxicity control, dose response (AID 743416); type: functional
[10] = blockers of bursicon-stimulated LGR2 cAMP reporter – cell-based, HEK293, CRE-luciferase reporter, cherry pick, set 2, dose response (AID 743343); type: functional;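 note: transfected cells were stimulated with diluted bursicon conditioned medium after compound addition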
[11] = blockade of melanocortin 4 receptor signaling – cell-based, plate reader, cherry pick, counter-screen for LGR2 antagonist project, dose response (AID 743444); type: functional;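 note: transfected HEK 293 cells stimulated with alpha-MSH peptide; potency of inhibitors of the alpha-MSH evoked signal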
[12] = viability loss in HEK293 cells – cell-based, plate reader, cherry-picked samples, cytotoxicity control, dose response (AID 743446); type: functional
[13] = toxicity toward immortalized ovarian surface epithelium – cell-based, plate reader, dry powder samples, cytotoxicity control for PAX8 inhibitor project, dose response (AID 743045); type: functional
[14] = A2780 cell killing – plate reader, dry powder samples, cytotoxicity control, dose response (AID 743046); type: functional, cell-based
[15] = OVCAR-3 cell viability loss – plate reader, dry powder samples, PAX8 inhibitor project, dose response (AID 743044); type: functional, cell-based
[16] = IGROV1 cell killing – plate reader, dry powder samples, PAX8 inhibitor project, dose response (AID 743043); type: functional, cell-based; conditions: IGROV-1
[17] = general cell-killing toxicity readout – plate reader, dry powder samples, cytotoxicity control for PAX8 inhibitor project, dose response (AID 743021); type: functional, cell-based
[18] = OVCAR8 cell viability loss – plate reader, dry powder samples, PAX8 project, dose response (AID 743197); type: functional, cell-based; conditions: OVCAR-8
[19] = CTGF mRNA reduction in DLD1 cells – cell-based, DLD1 colon cancer, RT-qPCR, cherry-pick, dose response (AID 1053122); type: functional; conditions: Cancer cell lines
[20] = NIH-3T3 fibroblast cytotoxicity, dose response, cytotoxicity control, cell-based, fluorescence, Alamar Blue, secondary assay (AID 2327); type: functional;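 note: NIH-3T3 mouse fibroblasts cultured with fluconazole at 8 µg/mL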
[21] = fluconazole-exposed Candida albicans growth modulators – fluorescence, retest, confirmation (AID 2467); type: functional, cell-based
[22] = HEK-293T cell viability reduction – luminescence, B-cell screen hits, cytotoxicity control for BCR NF-kB inhibitor project, dose response (AID 489021); type: functional, cell-based;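 note: HEK-293T cells carrying an NF-kB luciferase reporter; cells exposed to compound for about 14 hours before viability readout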
INS1 = experiment: INS-1E survival protection against cytokine death – cell-based, luminescence, retest, dose response (AID 449756); type: functional;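 note: cell death triggered by IL-1 beta plus TNF-alpha plus IFN-gamma mixture; protective hits raise ATP signal compared with cytokine alone wells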
[23] = target: COUP transcription factor 2 (Homo sapiens, UniProt P24468); experiment: Luminescence-based cell-based high throughput dose response assay to identify inhibitors of COUP-TFII (NR2F2).; type: functional;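 note: HEK293 cells transiently cotransfected with COUP-TFII expression vector and reporter; luciferase reporter luminescence driven by COUP-TFII from the pX2-168 reporter plasmid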
[24] = glucagon-like peptide-1 release potency in STC-1, concentration-response, half-maximal inhibitory concentration in the STC-1 line (AID 1117345); type: functional, cell-based
[25] = Potency on glucagon-like peptide 1 release, dose-response in NCI-H716 cell line, half maximal inhibitory concentration (AID 1117344); type: functional, cell-based
Cytochrome P450 2D6 = Cytochrome P450 2D6 (Homo sapiens, UniProt P10635);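 note: CYP2D6 member of a cytochrome P450 panel assay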
Cytochrome P450 1A2 = target: T2, Cytochrome P450 1A2 (Homo sapiens, UniProt P05177);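 note: PubChem cytochrome P450 panel assay, CYP1A2 panel member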
T2 sequence (P05177 whole entry): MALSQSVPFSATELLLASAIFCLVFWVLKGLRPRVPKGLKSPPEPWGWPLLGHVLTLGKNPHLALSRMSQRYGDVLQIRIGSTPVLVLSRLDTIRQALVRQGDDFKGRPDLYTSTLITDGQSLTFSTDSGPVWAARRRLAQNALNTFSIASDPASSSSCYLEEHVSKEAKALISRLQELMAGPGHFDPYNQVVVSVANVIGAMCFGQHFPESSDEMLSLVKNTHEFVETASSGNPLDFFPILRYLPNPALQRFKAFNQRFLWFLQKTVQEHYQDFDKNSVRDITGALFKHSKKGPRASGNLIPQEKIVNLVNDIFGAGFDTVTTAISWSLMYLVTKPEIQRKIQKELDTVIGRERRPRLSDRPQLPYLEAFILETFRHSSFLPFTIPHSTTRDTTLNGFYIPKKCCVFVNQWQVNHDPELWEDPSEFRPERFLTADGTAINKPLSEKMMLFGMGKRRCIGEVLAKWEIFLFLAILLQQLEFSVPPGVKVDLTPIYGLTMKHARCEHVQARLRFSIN

Paired box protein Pax-8, sequence (Q06710 whole entry): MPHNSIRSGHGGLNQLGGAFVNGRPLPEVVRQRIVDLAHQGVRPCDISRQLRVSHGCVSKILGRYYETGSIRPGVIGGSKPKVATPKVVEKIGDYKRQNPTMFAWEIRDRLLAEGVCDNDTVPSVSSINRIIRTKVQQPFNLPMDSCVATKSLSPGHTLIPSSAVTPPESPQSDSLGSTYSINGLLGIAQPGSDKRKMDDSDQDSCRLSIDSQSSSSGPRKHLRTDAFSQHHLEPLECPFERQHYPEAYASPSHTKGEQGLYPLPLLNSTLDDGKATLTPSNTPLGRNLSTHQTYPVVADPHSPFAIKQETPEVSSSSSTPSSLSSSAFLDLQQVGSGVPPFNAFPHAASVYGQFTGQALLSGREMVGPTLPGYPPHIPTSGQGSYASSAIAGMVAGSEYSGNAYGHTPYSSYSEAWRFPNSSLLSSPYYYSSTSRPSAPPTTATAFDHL
COUP transcription factor 2, sequence (P24468 whole entry): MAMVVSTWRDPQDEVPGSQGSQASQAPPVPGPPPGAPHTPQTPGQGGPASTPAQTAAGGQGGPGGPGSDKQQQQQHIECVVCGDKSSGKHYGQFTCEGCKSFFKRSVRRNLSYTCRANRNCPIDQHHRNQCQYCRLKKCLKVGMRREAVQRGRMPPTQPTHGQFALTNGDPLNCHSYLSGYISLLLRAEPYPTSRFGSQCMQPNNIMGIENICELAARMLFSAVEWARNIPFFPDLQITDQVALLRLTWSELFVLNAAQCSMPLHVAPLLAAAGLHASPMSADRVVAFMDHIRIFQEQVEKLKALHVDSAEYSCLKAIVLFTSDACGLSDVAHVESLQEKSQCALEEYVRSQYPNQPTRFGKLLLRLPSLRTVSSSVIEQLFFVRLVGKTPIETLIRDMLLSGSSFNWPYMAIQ
Cytochrome P450 2D6, sequence (P10635 whole entry): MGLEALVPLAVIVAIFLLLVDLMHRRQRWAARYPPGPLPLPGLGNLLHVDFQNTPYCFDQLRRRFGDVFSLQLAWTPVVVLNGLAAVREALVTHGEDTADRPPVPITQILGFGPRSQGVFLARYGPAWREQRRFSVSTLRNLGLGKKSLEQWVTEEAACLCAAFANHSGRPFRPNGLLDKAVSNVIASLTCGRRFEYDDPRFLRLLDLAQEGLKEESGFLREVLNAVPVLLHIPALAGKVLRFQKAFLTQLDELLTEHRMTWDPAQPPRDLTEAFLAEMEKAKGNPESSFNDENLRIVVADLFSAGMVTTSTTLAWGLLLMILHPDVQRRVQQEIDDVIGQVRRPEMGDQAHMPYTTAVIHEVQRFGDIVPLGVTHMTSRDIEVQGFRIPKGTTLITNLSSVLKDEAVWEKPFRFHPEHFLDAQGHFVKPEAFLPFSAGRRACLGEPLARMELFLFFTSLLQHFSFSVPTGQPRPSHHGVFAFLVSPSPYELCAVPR

In the case of COC(=O)c1cc(NC(=O)c2ccc(-c3ccccc3)cc2)ccc1Cl, the IC50 [1] is reported as > 109 µM (inactive) and the IC50 [2] is reported as > 83.3 µM (inactive).
With C=CCn1cc(C(=O)NCc2ccc3c(c2)OCO3)c(=O)c2cc(S(=O)(=O)N(CC)CC)ccc21 the IC50 (Prothrombin) was 19.2 µM (active).
For Cc1ccc(S(=O)(=O)N2CCCCC2)cc1NC(=O)Cn1ncc(Cl)c(Cl)c1=O, the AC50 [3] was 2.6 µM (active), the AC50 [4] was 6.21 µM (active) and the AC50 (A-375) was 23.7 µM (active). For the same compound, the AC50 [5] was 4.32 µM (active), the AC50 [6] was 23.5 µM (active) and the AC50 [7] was 8.36 µM (active). For the same compound, the AC50 (Paired box protein Pax-8) was 4.3 µM (active), the AC50 [8] was 9.07 µM (active) and the AC50 [9] was 10.4 µM (active). For the same compound, the AC50 [10] was 17.9 µM (active), the AC50 [11] was 17.5 µM (active) and the AC50 [12] was 7.53 µM (active).
With C[C@H](CO)N1C[C@H](C)[C@@H](CN(C)C(=O)Nc2ccc3c(c2)OCO3)Oc2cc(C#Cc3ccncc3)ccc2S1(=O)=O the AC50 (Paired box protein Pax-8) was 3.02 µM (active), the AC50 [13] was 5.8 µM (active) and the AC50 [14] was 10.9 µM (active). The AC50 [15] was 5.21 µM (active), the AC50 [16] was 13.7 µM (active) and the AC50 [17] was 47.5 µM (active). For the same compound, the AC50 [18] was 8.81 µM (active).
With COc1ccc(NC(=O)N2CCCCN3[C@@H](CO)[C@H](c4ccc(-c5ccccc5F)cc4)[C@@H]3C2)cc1 the AC50 [19] was 2.72 µM (active).
With Cc1ccc(-c2c[n+](-c3ccccc3)c3n2CCCS3)cc1 the EC50 [20] was 50.9 µM (active), the EC50 [21] was 0.709 µM (active) and the IC50 [22] was > 80 µM (inactive). The AC50 (INS1; Rattus norvegicus, INS1) was 2.26 µM (active), the AC50 (INS1; ins1) was 1.92 µM (active) and the IC50 [23] was 17.4 µM (inactive).
In the case of O=C(O)Cc1ccccc1C(=O)O [2-CARBOXYBENZENEACETIC ACID], the IC50 (Prothrombin) is reported as > 50 µM (not active).
With Cc1c(NC(C)C)c(=O)n(-c2ccccc2)n1C [RAMIFENAZONE] the IC50 [24] was > 40 µM (inactive), the IC50 [25] was > 40 µM (inactive) and the AC50 (Cytochrome P450 2D6) was 12.6 µM (inconclusive). The AC50 (Cytochrome P450 1A2) was 0.0398 µM (inconclusive).
